Here are results for 88 compounds from a melting point compilation (Tetko et al.; mined from patent text by program, amines drawn as free bases though some values may be those of a salt).

As usually defined, the melting point is the temperature, or range, at which the solid turns liquid.

`COc1cc2c(c(Cl)c1Cl)SC(C(C)C)C2O` (stereo not drawn) returned a melting point of 119 to 123 °C.

`O=C(O)Cc1cc(=O)n(Cc2ccc(Cl)cc2)c2ccc([N+](=O)[O-])cc12` had a melting point of 217 to 219 °C.

For `O=C(Cl)/C=C/c1cccc(Br)c1`, the melting point lay in the range of 85 to 86 °C. `CCN(C(=O)COc1nc(-c2ccc(N)cc2)nc(C)c1C)c1ccccc1` registered a melting point of 183 to 185 °C. On to `CC(C)(C)C(=O)n1c(=O)n(CCN2CCC(=C(c3ccc(F)cc3)c3ccc(F)cc3)CC2)c(=O)c2cscc21`, for which the melting point was in the range of 69 to 72 °C. As to `CC(C)(C)c1cc(CC(C)(C)C2OCCS2)cc(C(C)(C)C)c1O` (stereo not drawn), the melting point came to 77 °C. The compound `CCC(=O)Nc1c([N+](=O)[O-])cnn1-c1ccc(Cl)c(Cl)c1Cl` gave a melting point of 79 to 81 °C. Turning to `O=C(c1ccc(F)cc1)C1CCN(CCO)CC1`, the melting point fell in the range of 45 to 47 °C.

Compound `COc1ccc(C(=O)Nc2ccc(C(C)(C)CNC(C)=O)c(-c3cccnc3)c2)cc1OC` registered a melting point of 234 to 237 °C. Under `COC(=O)C(Cl)=Cc1cc(-n2ncc(C(F)(F)F)c(C)c2=O)ccc1Cl` stands 80 to 81 °C; under `Nc1sc2c(c1C(=O)c1ccccc1)CCN(C(=O)OCc1ccccc1)C2`, 138 to 140 °C. Turning to `Cc1ccc(S(=O)(=O)Oc2ccc3c4c(nn3CCCN)-c3cnccc3C(=O)c24)cc1`, the melting point lay in the range of 211 to 213 °C. `CN1Cc2c(C(N)=O)ncn2-c2ccc(F)cc2C1=O` came in with a melting point of 272 to 273 °C. In the case of `COCC1CN(c2ccc(C3CCCCC3)cc2)C(=O)O1` (racemic), the melting point was in the range of 86 to 88 °C. `COc1ccc(Oc2c(C)noc2NS(=O)(=O)c2ccccc2)cc1` came in with a melting point of 128 to 130 °C. For the compound `C=CCOc1noc2ccc(N3C(=O)C4=C(CCCC4)C3=O)cc12`, the melting point was 88 to 89 °C. Under `N#CC=C1CCN(c2ccc(N3C[C@H](CNC(=O)CC#N)OC3=O)cc2F)CC1` stands 150 to 152 °C; under `Cc1nc2c(OC3CCc4ccccc43)nccc2n1C` (stereo not drawn), 164 to 165 °C. For `CS(=O)(=O)Oc1cnc2ccccc2c1O`, the melting point came to 224 °C. Turning to `CC(C)[C@H]1COC(=O)N1C(=O)[C@@H](CC(=O)N(C)Cc1ccccc1)Cc1ccccc1`, the melting point is 60 to 62 °C.

`Cc1ccc(-c2c(C(=O)NCc3cc(C(F)(F)F)cc(C(F)(F)F)c3)n(CCCCO)c(=O)c3cnccc23)cc1`: the melting point is 128 to 131 °C. Under `COC(=N)c1ccc(-c2ccc([N+](=O)[O-])cc2)o1` stands 184 to 188 °C. Under `COc1cc2nc(S(=O)Cc3nccc(N4CCOCC4)c3F)[nH]c2cc1OC` (stereo not drawn) stands 213 to 215 °C. Under `O=c1[nH]c(COCC(F)(F)F)nc2nccnc12` stands 165 to 167 °C. `CC(=O)N(C)CCc1ccc(C(=O)O)cc1` came in with a melting point of 149 to 151 °C. Under `Cc1c(O)cccc1C(=O)N[C@@H](Cc1ccccc1)[C@H](O)C(=O)N1CSC(C)(C)[C@H]1C(=O)N[C@@H]1CCc2ccccc21` stands 128 to 130 °C; under `CC(Oc1ccc(-c2ccc(Cl)cc2Cl)cc1)C(O)CCc1cccnc1` (stereo not drawn), 98 to 100 °C; under `CCOC(=O)C1(C(=O)OCC)CCNC(=O)CC1`, 80 to 81 °C. For the compound `O=C1CSCC2=C1C(c1ccc(F)c(Br)c1)n1nccc1N2` (stereo not drawn), the melting point fell in the range of 160 to 163 °C. The compound `O=[N+]([O-])c1cn(-c2cccnc2)nc1Br` had a melting point of 139 to 141 °C. `COc1ccc(C2(C#N)CCC(CC(=O)O)CC2)c2c1OCCO2` (stereo not drawn) displayed a melting point of 149 to 150 °C. The compound `CCN(CC)CCNc1ccc(CNS(C)(=O)=O)c2sc3ccc(Br)cc3c(=O)c12` displayed a melting point of 134 to 139 °C. Under `Cc1cn(C(C)C(=O)N(C)C)nc1-c1ccc(Cl)c(Cl)c1` (stereo not drawn) stands 109 to 110 °C; under `O=C1NC(=O)C(Cc2cc(=O)n(Cc3ccc(Cl)cc3)c3ccccc23)S1` (stereo not drawn), 142 to 144 °C. Consider `O=C(O)c1cccc(Br)c1Nc1ccccc1Br`, for which the melting point lay within 181 to 182 °C.

Compound `CN1CCN(C(=O)OC2c3ccccc3C(=O)N2c2ccc3c(Cl)ccnc3n2)CC1` (stereo not drawn) returned a melting point of 240 °C.

Compound `CCCCOC(=O)NC(=O)C1c2ccccc2Oc2ccccc21` yielded a melting point of 180 to 183 °C. Under `CN1CCN(c2nn(CC3CC3)c3ccccc23)CC1` stands 68 to 70 °C. `CC1(C)C(=O)Nc2cc(C(=O)Nc3cccc(N)c3)ccc21`: the melting point lay in the range of 244 to 245 °C. As to `Cc1nc(N2CCN(Cc3ccc(F)cc3)C2=O)sc1C(=O)NCCN1CCCC1`, the melting point lay within 183 to 184 °C. Under `O=C(CP(=O)(O)O)NC12CC3CC(CC(C3)C1)C2` stands 190 to 194 °C. Turning to `Cc1ccccc1-c1cc(C#N)c[nH]1`, the melting point lay in the range of 151 to 152 °C.

Regarding `COc1ccc(-c2[nH]nc3c2C(=O)c2c(NC(=O)CNCCO)cccc2-3)cc1`, the melting point came out at 243 °C.

Compound `CCOC(=O)c1sc(N(C)C)c2c1CCc1cnn(C)c1-2` yielded a melting point of 118 to 119 °C.

In turn, `Nc1nsnc1-c1ccc(Cl)cc1` displayed a melting point of 132 to 133 °C. Compound `CCOCc1nc2c(N)nc3cc(C=O)ccc3c2n1CC(C)(C)O` gave a melting point of 203 to 205 °C. Turning to `CCc1nc2c(C)cc(C)nc2n1Cc1ccc(-c2ccccc2-c2c(O)c(=O)c2=O)cc1`, the melting point was in the range of 245 to 247 °C. In turn, `COC(=O)c1ccc(Cl)cc1NC(=O)CSc1ccc(C)c(C)c1` showed a melting point of 90 to 91 °C. With `NS(=O)(=O)c1cccc2c1SCC=C2`, the melting point lay in the range of 214 to 216 °C. On to `CCCN(C(C)=O)c1ccc(C(=O)N2CCN(CCc3ccc(Cl)cc3)CC2)cc1`, for which the melting point fell in the range of 112 to 113 °C.

Turning to `CC(O)=C(C#N)C(=O)Nc1cccc(F)c1`, the melting point lay in the range of 136 to 138 °C.

In turn, `CCCOc1ccccc1-c1nc(C)cc(O)n1` had a melting point of 109 to 110 °C.

For `Cc1c[nH]c2cc(-c3nn(C(C)c4oc5ccccc5c(=O)c4-c4cccc(F)c4)c4ncnc(N)c34)ccc12` (stereo not drawn), the melting point was 262 to 265 °C. Take `CCCCn1c(=O)c(NC(=O)Nc2cc(CO)ccc2C(C)(C)C)c(-c2cccc(OC)c2)c2cccnc21`: the melting point lay within 102 to 105 °C.

Consider `CCCC(=O)Oc1ccc(OC(=O)CCC)c(C#N)c1C#N`, for which the melting point is 86 to 87 °C.

`Cc1cc(-c2cccc(Cl)c2)nnc1Cl`: the melting point was 138 to 140 °C. In the case of `CN(C)c1nc(N(C)C)c2ccccc2n1`, the melting point was 74 to 76 °C. As to `CCCc1ccccc1OCCCOc1cccc(OC(=CC(=O)OC)C(=O)OC)c1CC`, the melting point is 63.5 to 66 °C. Turning to `CCCOc1ccccc1-c1nc2nc(NCCCSC)ncc2c(=O)[nH]1`, the melting point fell in the range of 173 to 174 °C. `C(C#Cc1cccc2ccccc12)#Cc1cccc2ccccc12` returned a melting point of 176 to 177 °C.

On to `CCc1nc2c(cnn2CC)c(NC2CCOCC2)c1CNC(=O)c1cccc(C(=O)NCc2ccc(C)c(-c3cccc(CN4CCCN(C)CC4)c3)c2)c1`, for which the melting point is 107 to 109 °C. Turning to `CCNC(=O)n1nc(Oc2ncc(C(F)(F)F)cc2Cl)c(C)c1C`, the melting point lay in the range of 124 to 125 °C.

In turn, `O=C(NCCc1cccc(-c2nc(=O)c3ccccc3s2)n1)c1ccccc1` came in with a melting point of 202 to 203 °C. In turn, `CN1CC(CCN2CCN(c3ccc(Br)cc3)CC2)OC1=O` (stereo not drawn) gave a melting point of 125 to 127 °C. The compound `CCc1cccc2c1C(=O)N(Cn1nnn(-c3ccccc3)c1=S)S2(=O)=O` yielded a melting point of 127 to 129 °C. Under `CC(C)(C(=O)O)c1nc2ccc(NCCCN3CCN(C(c4ccccc4)c4ccccc4)CC3)nn2c1Cl` stands 184 to 186 °C; under `O=C1c2ccccc2C(=O)N1Cc1ccccc1-c1noc2ccccc12`, 142 °C; under `O=C(O)CCS(=O)(=O)NCCOCCc1ccccc1`, 80 to 82 °C. `O=C(Nc1cc2nc(-c3ccc(C(=O)C45CC6CC(CC(C6)C4)C5)cc3)[nH]c2cn1)c1ccccn1` showed a melting point of 305 °C. Under `CCOC(=O)N1CCC(C(=O)Cl)CC1` stands 96 to 98 °C; under `Cc1cc(C2(C(F)(F)F)ON=C(c3ccc(F)cc3)O2)ccc1NC(=O)c1cccc(I)c1C(=O)NC(C)C` (stereo not drawn), 99 to 112 °C; under `CC[C@@H](C[C@H](O)[C@H](CC1CCCCC1)NC(=O)[C@H](Cc1c[nH]cn1)NC[C@H](Cc1ccccc1)NC(=O)OC(C)(C)C)C(C)C`, 144 °C. Compound `O=C1CC2CCC1C(Nc1ccc(Cl)cc1)C21CCCCC1` (stereo not drawn) came in with a melting point of 139 to 141 °C.

In turn, `CCOP(=O)(CCCOn1cnc2c(Cl)nc(NC=O)nc21)OCC` registered a melting point of 121 to 124 °C. On to `CCn1c(C)c(C(=O)c2ccc(C)c3ccccc23)c2ccccc21`, for which the melting point lay within 136 to 137 °C.

`COc1cc(C(=O)O)ccc1OCc1nc(-c2ccccc2)oc1C` showed a melting point of 219 to 220 °C.

For `O=C1NC(=O)[C@@]2(C[C@@H](C(=O)NO)Oc3ccc(F)cc32)N1`, the melting point amounted to 178 °C.

In turn, `COc1ccc2oc(N(C=O)[C@@H](Cc3ccccn3)c3ncc(-c4ccc(N5CCOCC5)cc4)n3C)cc2c1` came in with a melting point of 122 to 124 °C. As to `CCCc1cn(CCO)nc1OCc1ccc2ccccc2n1`, the melting point lay within 61 to 62 °C.

`CCOC(=O)n1nc(S(=O)(=O)Nc2c(Cl)cccc2Cl)nc1NC` returned a melting point of 202 to 203 °C. Under `COc1ccc(C(=O)NCc2ccc(CNC(=O)c3ccc(OC)cc3)cc2)cc1` stands 249 to 250 °C. For `O=C1Nc2ccc(-c3ccc(Cl)cc3)cc2C1=NO`, the melting point was in the range of 236 to 237 °C.

Consider `Cc1ccc(C(O[Si](C)(C)C(C)(C)C)C(N)=O)cc1` (stereo not drawn), for which the melting point was in the range of 108 to 110 °C. In turn, `Cc1ccc(-c2nc(N)ncc2-c2ccc(=O)n(C)n2)cc1` registered a melting point of 230 °C. Compound `O=C(OCc1ccccc1)N1CCN2c3ccc([N+](=O)[O-])cc3OCC2C1` (stereo not drawn) had a melting point of 138 to 140 °C. On to `Nc1ccc2c(c1)NC(=O)C(CCCN1CCN(c3ccc(F)cc3)CC1)O2` (stereo not drawn), for which the melting point was 158 to 159 °C. The compound `N#Cc1c(-c2ccc(Cl)cc2)[nH]c(C(F)(F)F)c1Cl` showed a melting point of 242 to 243 °C. The compound `CNC(=O)NCCN1CCC(Nc2nc3ccccc3n2Cc2ccc(C)o2)CC1` had a melting point of 200 °C.
